Measured values from patent US20250206779A1, “ANGIOTENSIN-(1-9) ANALOGUE BASED ON D AMINO ACIDS, PHARMACEUTICAL COMPOSITIONS AND USES THEREOF” (UNIVERSIDAD DE CHILE, priority 2021, published 2025).
Where a SMILES comes first, the peptide text is derived from it. [ ]: non-standard residue; d: D form.

Tests used:
[1] = tested on: spontaneously hypertensive rats (SHR); assay: Cardiac fibrosis in SHR, picrosirius red staining; assay type: in vivo, rat; conditions: SHR, 1,200 ng/kg/min, 14 days
Protocol: (§1) Experimental animal model. All procedures were performed in accordance with the Guide for the Care and Use of Laboratory Animals published by the U.S. National Institutes of Health (NIH Publication 85 23, 1985) and approved by our Institutional Bioethics Committee. The animals were housed under the continuous professional monitoring of the Medical Veterinary staff in the animal facility of the Pontificia Universidad Católica de Chile, under the following conditions: 12-h light-dark cycle; 21° C. ambient temperature; 50% humidity; adequate ventilation; noise-free environment; and food and water ad libitum. Male spontaneously hypertensive rats (SHR, age 12 weeks) and normotensive Wistar Kyoto rats (WKY, 12 weeks age) were used. […] Systolic blood pressure (SBP), diastolic blood pressure (DBP) and body weight (BW) were measured at the end of the treatment period and the animals were then sacrificed.
Evaluation of cardiac fibrosis. […] In hypertense SHR increased picrosirius red staining was detected in the hearts, indicating the presence of interstitial collagen, a marker of cardiac fibrosis.

[2] = tested on: spontaneously hypertensive rats (SHR); assay: Blood pressure in spontaneously hypertensive rats; assay type: in vivo, rat; conditions: SHR, 300, 600, 1200 ng/kg/min, osmotic minipumps, 14 days
Protocol: as §1
Hemodynamic evaluations. SBP and DBP were measured twice per week by a researcher blinded to study group, using a CODA 2 noninvasive pressure device with volume-pressure recording (Kent Scientific Corporation, Torrington, CT, USA). […]

[3] = Stability in human serum determined by HPLC; assay type: in vitro ADME; conditions: male, 48 h incubation, 37° C., read-out: degradation after incubation with human serum
Protocol: The retro-inverse peptides were dissolved in PBS to obtain a final concentration of 1 mM. From this stock, an aliquot of 50 μL was taken and diluted to 450 μL of human serum (Sigma Aldrich from human male AB plasma, USA origin, sterile-filtered) at 37° C. under agitation, to obtain an initial concentration of […] and incubated for 48 h. Aliquots of 50 μL were extracted at 0, 5, 10 min and 1, 3, 6, 24 and 48 h and added to 200 μL of methanol at 4° C. for 30 min to precipitate serum proteins. The samples were then centrifuged at 13,000 g in Hermle Cooling Centrifuge Z 326 K 311.00 V01 at 4° C. for 30 min. The supernatants (approximately 200 μL) were obtained, placed in vials, and then analyzed by HPLC. All analyzes were performed on the Perkin Elmer auto sampler flexo HPLC, using a reverse phase 4.6×100 mm column with a particle size of […] (Waters XBridge Peptide BEH C18 Column). Mobile phase A was 100% acetonitrile and phase B was TFA 0.0004% in Milli-Q water. The initial composition of eluent was 5% A and 95% B for 1 min and then a linear gradient to reach 100% A in 19 min and then return to the initial composition in 4 min, with a total run time of 25 min. The eluent flow was 0.9 mL/min and the temperature of the column was adjusted to 26° C. L measurement was performed at a UV signal of 220 nm wavelength. Where 50 μL was injected per sample. Peptides were identified based on their retention time in the respective chromatogram obtained in the Chromera-HPLC flexar program.

[4] = tested on: spontaneously hypertensive rats (SHR); assay: Cardiac inflammation by monocyte infiltration in SHR, ED-1 immunohistochemistry; assay type: in vivo, rat; conditions: SHR, 1,200 ng/kg/min, 14 days
Protocol: as §1
Evaluation of cardiac inflammation by monocyte infiltration. Monocyte infiltration was assessed as a marker of cardiac inflammation. Monocytes were detected by immunohistochemistry using ED-1. […] In hypertense SHR increased ED-1 positive cells was detected in the hearts, indicating the presence of monocyte infiltration, a marker of cardiac inflammation.

CC[C@@H](C)[C@@H](NC(=O)[C@@H](Cc1c[nH]cn1)NC(=O)[C@H]1CCCN1C(=O)[C@@H](Cc1ccccc1)NC(=O)[C@H](N)Cc1c[nH]cn1)C(=O)N[C@H](Cc1ccc(O)cc1)C(=O)N[C@@H](C(=O)N[C@H](CCCNC(=N)N)C(=O)N[C@H](CC(=O)O)C(=O)O)C(C)C [retro-inverse angiotensin-(1-9), NH2-^DH^DF^DP^DH^DI^DY^DV^DR^DD-COOH] (H-[dH][dF][dP][dH][dI][dY][dV][dR][dD]-OH)
accumulation of collagen in cardiac tissue [1]: completely revert
diastolic blood pressure (DBP) [2]: reduced SBP and DBP in a dose-dependent manner
systolic blood pressure (SBP) [2]: reduced SBP and DBP in a dose-dependent manner
metabolised at 48 h, 20 μM [3]: < 20%
accumulation of ED-1 positive cells in cardiac tissue [4]: completely revert
